Source: the NIST ThermoML archive (doi:10.1007/s10765-010-0742-8)
Several values for one entry are separate records, joined by “and”; a condition that tells them apart may be missing. Equal values may be shown once.

Legend:
[1] = mn = molality of the nth substance listed, in mol/kg; settings: 101 kPa, Liquid, m1 = 0.1; for viscosity: Capillary tube (Ostwald / Ubbelohde) method; for mass density: Pycnometric method
[2] = refractive index (Na D-line) (dimensionless); mn = molality of the nth substance listed, in mol/kg; settings: 101 kPa, Liquid, Standard Abbe refractometry, m1 = 0.1

O=C[C@H](O)[C@@H](O)[C@@H](O)[C@H](O)CO [(+)-galactose] + O
Settings	mass density, [1]	refractive index, [2]	viscosity, [1] [mPa·s]
298.15 K	1003.9 kg/m3	1.3345	0.9284
303.15 K	1002.3 kg/m3 and 1002.4 kg/m3	1.334 and 1.3339	0.8345
308.15 K	1001 kg/m3	1.3335	0.7518
313.15 K	999.5 kg/m3	1.3329	0.6858
